According to patent publication US20100284914A1 (priority 2005, published 2010):
In brackets after ≈: the same amount, converted by molar mass. Read-outs that look alike come from different tables or passages of the source.

Experiments:
Candida albicans CBS 562 = format: cell-based; settings: for MIC: read-out: MIC (column A)
Candida albicans 615 = format: cell-based
[1] = tested on: Candida glabrata 4475 (resistant to azoles); format: cell-based; settings: Nakaseomyces glabratus, 24 h, read-out: MIC
Candida albicans 607 = format: cell-based
Rhizopus oryzae = assay: microbe, parasite or virus in culture; format: cell-based; settings: Rhizopus arrhizus
Candida glabrata 4681 = format: cell-based; settings: footnote c
Candida glabrata 4787 = format: cell-based
in vivo = settings: male, ICR, mouse, iv
[2] = long chain lengths
[3] = Stability of the radiolabeled product by TLC; format: physicochemical; settings: saline solution, after 10 hours, silica gel 60 F254
Description: The final product was tested on TLC (silica gel 60 F254) after 10 hours and found stable.

Sprague-Dawley rats = assay: PET imaging, bio-distribution; format: in vivo; settings: normal female Sprague-Dawley rats, 50 μCi via tail vein, imaged after 30 minutes
Description: The exemplary [^18F] labeled amine fluorocyanoborane according to the present embodiments, Compound [^18F]K-I4, was injected into normal rats, and was monitored by a PET/CT Philips camera.
Four normal, female Sprague-Dawley rats (250-300 grams each) were injected via the tail vein with 50 μCi of Compound [^18F]K-I4 solution in saline (4.5 mCi/ml). Fifteen minutes after injection, the rats were anesthetized with 45 mg Ketamine and 24 mg Acepromazin, and after 30 minutes each rat was imaged for 15 minutes.

[4] = CBS562, Candida albicans CBS 562, MIC-0, 24 h, 35° C.
[5] = Candida albicans 615, MIC-0, 24 h, 35° C., read-out: MIC
[6] = Candida glabrata 4475 (resistant to azoles), footnote c
[7] = Candida albicans 607, MIC-0, 24 h, 35° C., read-out: MIC
[8] = Nakaseomyces glabratus, Candida glabrata 4787, read-out: MIC
[9] = Candida albicans, 615, 24 h, read-out: MIC
[10] = Candida albicans, 607, 24 h, read-out: MIC

| Structure (SMILES) | MIC (Candida albicans CBS 562; [4]) | MIC (Candida albicans 615; [5]) | MIC [1, 6] | MIC (Candida albicans 607; [7]) | MIC (Candida glabrata 4681) | other results |
| --- | --- | --- | --- | --- | --- | --- |
| CCCCCCC(C)(O)C[N+](C)(C)[BH2-]C#N (stereo not drawn) [K-O, 1-dimethylamino-2-methyl-octan-2-ol cyanoborane] | 2210 µM (≈ 500 µg/mL) | 1100 µM (≈ 249 µg/mL) | > 0.25 µg/mL | 1100 µM (≈ 249 µg/mL) | – | – |
| C[C@@H]1[C@H](O)[C@@H](C)/C=C/C=C/C=C/C=C/C=C/C=C/C=C/[C@H](O[C@@H]2O[C@H](C)[C@@H](O)[C@H](N)[C@@H]2O)C[C@@H]2O[C@](O)(C[C@@H](O)C[C@@H](O)[C@H](O)CC[C@@H](O)C[C@@H](O)CC(=O)O[C@H]1C)C[C@H](O)[C@H]2C(=O)O [CAF1, Amphotericin B, reference compound] | – | – | – | – | – | MIC (column A) (Candida albicans CBS 562; Candida albicans CBS 562, MIC-0, 24 h, 35° C.): 0.54 µM (≈ 0.499 µg/mL); MIC (Candida albicans 615; Candida albicans 615, MIC-0, 24 h, 35° C.): 0.27 µM (≈ 0.25 µg/mL); MIC (Candida albicans 607; Candida albicans 607, MIC-0, 24 h, 35° C.): 0.27 µM (≈ 0.25 µg/mL) |
| COC(=O)[B-](F)(F)[N+](C)(C)C | – | – | – | – | – | melting point: 66 °C |
| CCCCCCCCCCC[N+](C)(C)[BH-](Br)C#N (stereo not drawn) [K-I1, dimethyl-undecyl-amine cyanobromoborane] | 49 µM (≈ 15.5 µg/mL) | 49 µM (≈ 15.5 µg/mL) | 0.0078 µg/mL (≈ 0.0246 µM) | 49 µM (≈ 15.5 µg/mL) | 7.8^c μg per liter | MIC (Rhizopus oryzae): 63 µg/mL (≈ 199 µM); MIC (Candida glabrata 4787; [8]): 15.6 µM (≈ 4.95 µg/mL) |
| CCCCCCCCCCC[N+](C)(C)[B-](Br)(Br)C#N [K-I2, dimethyl-undecyl-amine cyanodibromoborane] | 39 µM (≈ 15.4 µg/mL) | 39 µM (≈ 15.4 µg/mL) | – | 39 µM (≈ 15.4 µg/mL) | 32^c μg per liter | MIC (Candida glabrata 4787; [8]): 32 µM (≈ 12.7 µg/mL); MTD (in vivo): 73.1 µmol/kg |
| C[N+](C)(C)[BH-](F)C#N (stereo not drawn) | – | – | – | – | – | melting point: 53 °C |
| C[N+](C)(C)[B-](F)(F)C#N | – | – | – | – | – | melting point: 48 °C |
| C[N+](C)(C)[B-](Br)(Br)C#N [K-E, trimethyl-amine cyanodibromoborane] | 1970 µM (≈ 504 µg/mL) | > 1970 µM | > 0.5 µg/mL | > 1970 µM | – | – |
| C[N+](C)([BH2-]C#N)CCCCCCCCCC[N+](C)(C)[BH2-]C#N [K-J, N,N,N′,N′-tetramethyldecane-1,10-diamine bis-cyanoborane] | – | – | – | – | – | MIC (Candida albicans CBS 562; Candida albicans, CBS562, 24 h): 408 µM (≈ 125 µg/mL); MIC (Candida albicans 615; [9]): 817 µM (≈ 250 µg/mL); MIC [1]: 0.065 µg/mL (≈ 0.212 µM); MIC (Candida albicans 607; [10]): 408 µM (≈ 125 µg/mL) |
| CCCCCCCCCCCCCCCCC[N+](C)(C)[BH2-]C#N [K-S, heptadecyl-dimethyl-amine cyanoborane] | – | – | – | – | – | solubility [2]: solubility problems |
| C[N+](C)(CCCCCCCCCC[N+](C)(C)[B-](Br)(Br)C#N)[B-](Br)(Br)C#N [K-J2, N,N,N′,N′-tetramethyldecane-1,10-diamine bis-cyanodibromoborane] | – | – | – | – | 65^c μg per liter | MIC (Candida albicans CBS 562; Candida albicans, CBS562, 24 h): 104 µM (≈ 64.7 µg/mL); MIC (Candida albicans 615; [9]): 104 µM (≈ 64.7 µg/mL); MIC [1]: 0.065 µg/mL (≈ 0.105 µM); MIC (Candida glabrata 4787; Nakaseomyces glabratus, 4787, read-out: MIC): 65 µM (≈ 40.4 µg/mL); MIC (Candida albicans 607; [10]): 104 µM (≈ 64.7 µg/mL) |
| C[N+](C)(CCCCCCCCCC[N+](C)(C)[BH-](Br)C#N)[BH-](Br)C#N (stereo not drawn) [K-J1, N,N,N′,N′-tetramethyldecane-1,10-diamine bis-cyanobromoborane] | 140 µM (≈ 64.9 µg/mL) | 140 µM (≈ 64.9 µg/mL) | 0.065 µg/mL (≈ 0.14 µM) | 140 µM (≈ 64.9 µg/mL) | 65^c μg per liter | MIC (Candida glabrata 4787; [8]): 65 µM (≈ 30.2 µg/mL) |
| CCCCCCCCCCC[N+](C)(C)[BH-](F)C#N (stereo not drawn) [K-I4, dimethyl-undecyl-amine cyanofluoroborane] | 64 µM (≈ 16.4 µg/mL) | 64 µM (≈ 16.4 µg/mL) | – | 64 µM (≈ 16.4 µg/mL) | – | – |
| C[N+](C)([BH2-]C(=O)O)CCCCCCCCCC[N+](C)(C)[BH2-]C(=O)O [K-J3, N,N,N′,N′-tetramethyldecane-1,10-diamine bis-carboxyborane] | 188 µM (≈ 64.7 µg/mL) | 907 µM (≈ 312 µg/mL) | 0.0312 µg/mL (≈ 0.0907 µM) | 188 µM (≈ 64.7 µg/mL) | 65^c μg per liter | MIC (Candida glabrata 4787; [8]): 65 µM (≈ 22.4 µg/mL) |
| CCCCCCCCCCC[N+](C)(C)[BH-]([18F])C#N (stereo not drawn) [[^18F]K-I4, [^18F]dimethyl-undecyl-amine cyanofluoroborane] | – | – | – | – | – | stability on TLC [3]: stable; bio-distribution by PET/CT (Sprague-Dawley rats): uptake in the rat's bones |
| CCCCCCCCCCC[N+](C)(C)[B-](F)(Br)C#N (stereo not drawn) [K-I3, dimethyl-undecyl-amine cyanofluorobromoborane] | 7.8 µM (≈ 2.61 µg/mL) | – | – | – | – | MIC (Rhizopus oryzae): 63 µg/mL (≈ 188 µM) |
